Read-outs that look alike come from different tables or passages of the source.
Key:
[1] = test system: Hec50co human endometrial cancer cells; details: 2 uM, 24 hrs
Method: Hec50co human endometrial cancer cells were treated with 0.5 μM, 1.0 and 2.0 μM azido-decylTPP and bis-TPP and incubated for 24 hrs. DMSO was added to control dishes to a final concentration of 0.1%. Following a 24 hr. incubation period, cells were plated at densities of 200, 400, 600, 800, 2,000, 5,000, and 10,000 cells per dish and incubated for 2 weeks. After incubation, cells were stained with Coomassie blue and counted under a light microscope. Survival fraction was calculated by dividing the number of colonies counted following treatment by the product of the number of cells plated and plating efficiency. Error bars represent uncertainties of N=2 experiments.

[2] = test system: MB231 cells; details: 24 hrs
Method: MB231 cells were treated with 0.5 μM, 1.0 μM, and 2.0 μM azido-decylTPP and bis-TPP and incubated for 24 hrs. DMSO was added to control dishes to a final concentration of 0.1%. Following a 24 hr. incubation period, cells were plated at densities of 200, 400, 600, 800, and 2,000 cells per dish and incubated for 2 weeks. After incubation, cells were stained with Coomassie blue and counted under a light microscope. Survival fraction was calculated by dividing the number of colonies counted following treatment by the product of the number of cells plated and plating efficiency.

[3] = test system: A375 melanoma cells; test: MTT survival fraction analysis, A375; type: cell-based

[N-]=[N+]=NCCCCCCCCCC[P+](c1ccccc1)(c1ccccc1)c1ccccc1 [azido-DTPP, (10-azidodecyl)triphenylphosphonium]
survival fraction [1]: 24%
survival fraction ([2]; 0.5 uM): 55%
survival fraction ([2]; 2 uM): 10%

CCCCC[P+](c1ccccc1)(c1ccccc1)c1ccccc1 [pentyl-TPP]
cytotoxicity in the absence of BSO, in words [3]: no effect
survival fraction ([3]; in the presence of BSO, 2 μM): 70%
cytotoxicity in the presence of BSO, in words ([3]; up to 2 μM): little cytotoxicity

decane-1,10-diylbis(triphenylphosphonium) [bis-DTPP]
survival fraction [1]: 66%
survival fraction ([2]; 0.5 uM): 90%
survival fraction ([2]; 2 uM): 82%
